Measured values taken from US12031137B2, “Compositions comprising SASP modulators and senescence attenuators and uses thereof for modulating cellular senescence” (RSEM, LIMITED PARTNERSHIP, priority 2016, dated 2024).

Key:
[1] = Mouse weight gain on systemic administration of metformin; type: in vivo
[2] = system: mouse model of oxygen-induced retinopathy (OIR); test: Avascular area and pre-retinal neovascularization in OIR flatmount retinas; type: in vivo
[3] = system: mouse model of oxygen-induced retinopathy (OIR); test: SA-β-gal staining of retinas in oxygen-induced retinopathy (OIR) after intravitreal injection; type: in vivo; conditions: single intravitreal injection at P12, vs vehicle
From the text: (§1) O2-induced retinopathy. Mouse pups from different strains (C57Bl/6 WT, LyzM-Cre, LysM-Cre/IRE1^fl/fl, LysM-Cre/IRE1^+/+, IRE1^fl/fl and LysM-Cre/ROSA26EYFP^fl/fl), and their fostering mothers (CD1, Charles River) were exposed to 75% 02 from postnatal day 7 (P7) to day 12 and returned to room air. This model serves as a proxy to human ocular neovascular diseases such as ROP and diabetic retinopathy characterized by a late phase of destructive pathological angiogenesis (72, 73). Upon return to room air, hypoxia-driven neovascularization (NV) develops from P14 onwards (27). We enucleated eyes at different time points and dissected the retinas for mRNA, protein assays or flatmounting.
(§2) Senescence-associated β-galactosidase (SA-β-gal) assay. Senescence-associated β-galactosidase assays were carried out as described previously (57, 75)
Quantification of SA-β-gal in vivo. Senescence-associated β-galactosidase staining in flatmount retinas or sagittal eye sections were analyzed using Image J software as described in FIG. 14.
(§3) Intravitreal injections. P2, P10 or P12 C57BL/6 pups were anesthetized with 3.0% isoflurane and injected in the vitreous chamber with 0.5 μL of lentivirus (see “Lentivirus production”), recombinant SEMA3A (100 ng/μL), metformin (10 μg/μL) or Aflibercept (10 μg/uL) using a 10-μL Hamilton syringe fitted with a […] glass capillary tip. Approximately 254±11.0 ng/μL of lentivirus Sh_GFP and 323.3±15.3 ng/μL containing Sh_Sema3a, Lv.Cre (15.0 ng/mL), Lv.GFP (15.0 ng/mL) was injected. Virus titers were assessed with the p24 ELISA kit (ZeptoMetrix). The titers of the lentiviruses used were (in ng p24) LV.Sh_RNA IRE1α (8.52 ng/mL), and LV.Sh_RNA.GFP (8.47 ng/mL).

[4] = system: mouse model of oxygen-induced retinopathy (OIR); test: TUNEL staining of OIR retinas; type: in vivo; conditions: P14 OIR, intravitreal, vs vehicle-treated retinas
From the text: as §1, §3

[5] = system: mouse model of oxygen-induced retinopathy (OIR); test: Immunoblot and RT-qPCR of OIR retinas after intravitreal injection; type: in vivo
From the text: as §1
(§4) Semi-quantitative and Real-time PCR analysis. We isolated RNA using the GenElute™ Mammalian Total RNA Miniprep Kit (Sigma) and performed a digestion with DNase I to prevent amplification of genomic DNA. We reversed transcribed the RNA using M-MLV reverse transcriptase and analyzed gene expression using SybrGreen™ in an ABI Biosystems Real-Time PCR machine. β-actin was used as a reference gene. […] We investigated the splicing of XBP-1 by incubating the XBP-1 semi-quantitative PCR product with 0.4 U/μL of PstI enzyme for 5 hrs at 37° C. followed by separation on 2.5% agarose gel.
as §3
(§5) Western blotting. We enucleated eyes at varying time points and rapidly dissected and homogenized retinas for assessment of retinal protein levels. Protein concentration from retinal homogenate and cell lysates were assessed by BCA assay (Sigma), and then 30 μg of protein analyzed for each condition by standard SDS-PAGE technique.

[6] = system: J774 macrophage/monocyte cells; test: SEMA3A exposure of J774 macrophage/monocyte cells (SA-β-gal, immunoblot, RT-qPCR, γH2AX); type: cell-based, mouse
Protocol: as §4
For Protein localization, flatmounted retinas were incubated with different antibodies as indicated. For in vitro IF, cultured cells were plated on 0.1% gelatin-coated coverslips and serum-starved overnight and stimulated for 7 days with SEMA3A (100 ng/ml). Cells were washed briefly with cold PBS and fixed for 20 minutes in PBS containing 3.5% paraformaldehyde. Cells were rinsed with PBS and permeabilized with 0.3% Triton in PBS for 5 minutes. Fixed cells were blocked with 1% BSA and then incubated for 1 hour with primary antibodies in 0.1% BSA in PBS. Bound primary antibodies were visualized after 1 hour of incubation using Alexa Fluor secondary antibody. Coverslips were mounted using Fluoromount (Sigma-Aldrich) and analyzed by confocal microscope (Olympus confocal FV1000). Samples were viewed with a ×63/1.4 NA oil or ×30 objective. Images were assembled using Photoshop CS4 (Adobe Systems). For all antibodies used for immunohistochemistry, see Table 8.
as §2
(§6) Preparation of conditioned media (CM). Human retinal microvascular endothelial cells (HRMECs), retinal neuron 661W photoreceptor cells and Mouse macrophages (J774A.1 cell line) were incubated for 7 days with recombinant SEMA3A ([…]), H2O2 (150 μM for 2 h) 48 h after transfection or not as indicated in each experiment. Supernatants were centrifuged and filtered and then frozen for subsequent use. For Western Blot on CM was concentrated using ultra centrifugal amicon filter unit from Millipore.
as §5

[7] = system: retina; test: Intravitreal injection of recombinant SEMA3A in mouse pups, senescence markers; type: in vivo; conditions: retina harvested at P5
From the text: FIG. 3A: Western blot analysis of SEMA3A protein expression level during OIR compared to normoxic controls at P10, P14, P17 and P21. β-actin is used as a loading control. FIG. 3B: Immunoblot analysis of SEMA3A protein levels during Ras-induced senescence in Mouse Embryonic Fibroblasts (MEFs). Cell lysates from MEFs retrovirally transduced with H-RasV12 oncogene or control empty vector harvested 14 days post-selection. FIG. 3C: SEMA3A transcript levels in human normal diploid fibroblasts (IMR90) retrovirally transduced with empty vector, MEK1 alone or MEK and human papillomavirus oncoproteins E6 and E7. […] FIG. 3I: HRMEC, retinal neurons (661W) and J774 (macrophages-like cells) stimulated with recombinant SEMA3A (100 ng/ml) or vehicle (CT) for 7 days, stained for SA-β-gal and quantification in FIG. 3J. […] Senescent cells were stained with SA-β-gal (right) and the level of secreted SEMA3A (S3A) protein in CM was evaluated by immunoblot (left). […] Senescence was evaluated after 7 days of treatment. FIG. 3M: Quantification of percentage of SA-β-gal positive cells treated as in (J). […]
Intravitreal injections. […] Virus titers were assessed with the p24 ELISA kit (ZeptoMetrix). […]
Western blotting. […] Protein concentration from retinal homogenate and cell lysates were assessed by BCA assay (Sigma), and then 30 μg of protein analyzed for each condition by standard SDS-PAGE technique.

[8] = system: retinal neurons (661W); test: SEMA3A exposure of 661W retinal neuron cell line (SA-β-gal); type: cell-based; conditions: 100 ng/ml, 7 days
Protocol: as §2
Preparation of conditioned media (CM). Human retinal microvascular endothelial cells (HRMECs), retinal neuron 661W photoreceptor cells and Mouse macrophages ([…]), H2O2 (150 μM for 2 h) 48 h after transfection or not as indicated in each experiment. Supernatants were centrifuged and filtered and then frozen for subsequent use. For Western Blot on CM was concentrated using ultra centrifugal amicon filter unit from Millipore.

[9] = system: Human retinal microvascular endothelial cells (HRMECs); test: SEMA3A exposure of HRMECs (cell cycle FACS, ECIS, SA-β-gal); type: cell-based
Protocol: Flow Cytometry Analysis. Human retinal microvascular endothelial cells (HRMEC) cell cycle analysis (P1 biolegend) were performed according to the manufacturer's instructions and as previously reported (43). Briefly, HRMEC (1×10^6) were seeded in 6-well plates and incubated for 7 days with SEMA3A, 100 and 500 ng/ml. The samples were analyzed by flow cytometry. FACS was performed on a LSRII (BD Biosciences) device and data were analysed using FlowJo software (version 7.6.5).
Electric Cell-substrate Impedance Sensing (ECIS) Proliferation assay. Real-time analysis of trans-endothelial electric resistance was performed by plating 5000 HRMECs/ml were seeded onto 8W10E+ standard 8-well arrays (Applied BioPhysics, NY). Cells were allowed to grow leading to a capacitance of less than 10 nF. Cells were starved for 5 Hours with endothelial basal media (EBM-2, Lonza) and then treated with 100 ng/ml SEMA3A or vehicle (EBM-2) for 120 h and impedance was measured using an ECIS Zθ impedance instrument (Applied BioPhysics, NY). Measurements were taken for 120 h post treatment.
as §2, §6

[10] = intravitreal injection at P12, P14 OIR retinas
[11] = HRMECs, 7 days, 100 and 500 ng/ml, FACS

In the case of `CN(C)C(=N)NC(=N)N` [metformin, N,N-Dimethylimidodicarbonimidic diamide], the mouse weight gain [1] is reported as “interfered with mouse weight gain”, the “benefits on pathological retinal angiogenesis” value ([2]; administered via systemic paths) is reported as “did not show any benefits” and the “enhancement of vascular regeneration” value ([2]; intravitreal injection at P12, assessed at P17 OIR) is reported as “more than 2 fold”. The “pathological neovascularization at P17 OIR” value ([2]; intravitreal injection at P12, vs vehicle) was “by half”, the “SA-β-gal staining at P14 OIR” value [3] was “significant decrease” and the “SA-β-gal staining at P17 OIR (cellular senescence)” value [3] was “significant decrease”. For the same molecule, the “apoptosis in cells of the GCL (TUNEL)” value [4] was “without aggravating apoptosis”, the “number of apoptotic cells in the INL layer (TUNEL)” value [4] was “lowered” and the “Components of the VEGF signaling pathway (Vegf-a, Vegf-c, Vegfr-1, Vegfr-2 RT-qPCR)” value [5, 10] was “not affected”. The “IL6, Cdkn1a, Cdkn2a and Sema3A by RT-qPCR” value [5, 10] was “significant decrease” and the “NF-κB and IRE1α activation in retinas (immunoblot)” value ([5]; single intravitreal injection at P12, OIR P14 and P17) was “attenuated”.

B1: SEMA3A: Recombinant human Semaphorin 3A (from murine myeloma cell line, NS0) (R&D Systems) (protein)
chain: YQNGKNNVPRLKLSYKEMLESNNVITFNGLANSSSYHTFLLDEERSRLYVGAKDHIFSFDLVNIKDFQKIVWPVSYTRRDECKWAGKDILKECANFIKVLKAYNQTHLYACGTGAFHPICTYIEIGHHPEDNIFKLENSHFENGRGKSPYDPKLLTASLLIDGELYSGTAADFMGRDFAIFRTLGHHHPIRTEQHDSRWLNDPKFISAHLISESDNPEDDKVYFFFRENAIDGEHSGKATHARIGQICKNDFGGHRSLVNKWTTFLKARLICSVPGPNGIDTHFDELQDVFLMNFKDPKNPVVYGVFTTSSNIFKGSAVCMYSMSDVRRVFLGPYAHRDGPNYQWVPYQGRVPYPRPGTCPSKTFGGFDSTKDLPDDVITFARSHPAMYNPVFPMNNRPIVIKTDVNYQFTQIVVDRVDAEDGQYDVMFIGTDVGTVLKVVSIPKETWYDLEEVLLEEMTVFREPTAISAMELSTKQQQLYIGSTAGVAQLPLHRCDIYGKACAECCLARDPYCAWDGSACSRYFPTAKRRTRRQDIRNGDPLTHCSDLHHDNHHGHSPEERIIYGVENSSTFLECSPKSQRALVYWQFQRRNEERKEEIRVDDHIIRTDQGLLLRSLQQKDSGNYLCHAVEHGFIQTLLKVTLEVIDTEHLEELLHKDDDGDGSKTKEMSNSMTPSQKVWYRDFMQLINHPNLNTMDEFCEQVWKRDRKQRRQRPGHTPGNSNKWKHLQENKKGRNRRTHEFERAPRSV
modifications: left off: a dimerising Fc or GST
In the case of B1, the “senescence (SA-β-gal) in macrophage-like J774 cells” value ([6]; 100 ng/ml, 7 days) is reported as “induces senescence”, the “expression of Pai1, Il6, Il1β, TGF-β and Tp53 (RT-qPCR)” value ([6]; J774, 100 ng/mL, 7 days) is reported as “drove expression” and the “senescence-associated DNA-damage foci expressing γH2AX” value ([6]; J774, 100 ng/mL, 7 days) is reported as “promoted”. The “IRE1α activation (p-IRE1α S724 immunoblot)” value ([6]; J774, sustained exposure, 100 ng/mL, 3 or 7 days) was “activated”, the “SA-β-gal staining of retina sagittal cryosections” value [7] was “marked augmentation” and the “p53, p16INK4a and IRE1α in retina (immunoblot)” value [7] was “marked increase”. For the same molecule, the “senescence (SA-β-gal) in 661W retinal neuron cell line” value [8] was “induces senescence”, the “senescence (SA-β-gal) in HRMECs” value ([9]; 100 ng/ml, 7 days) was “induces senescence” and the “normal endothelial cell growth (ECIS)” value ([9]; HRMECs, 100 ng/ml) was “stunted”. For the same molecule, the S phase [9, 11] was “significantly reducing” and the “cell cycle arrest in G0/G1” value [9, 11] was “increased”.
